Reference: ChEMBL document CHEMBL1201862, “PubChem BioAssay data set” (2004)
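Following 48 hours of exposure in 96-well plates, responses at five concentrations were used to interpolate endpoints linearly. GI50: concentration for 50% inhibition of growth.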 Calls of active or inactive are those of the source. Cut-off read from the data, not from the text of the source: active = GI50 up to about 1.1 µM and inactive = higher.

Legend:
Experiment in all cases: NCI anticancer screen, dose series, 48 h
A549 = system: A549
HCC 2998 = system: HCC 2998
HCT-116 = system: HCT-116
HOP-92 = system: HOP-92
HT-29 = system: HT-29
K562 = system: K562
KM12 = system: KM12
MOLT-4 = system: MOLT-4
Malme-3M = system: Malme-3M
NCI-H460 = system: NCI-H460
OVCAR-3 = system: OVCAR-3
OVCAR-5 = system: OVCAR-5
OVCAR-8 = system: OVCAR-8
RXF 393 = system: RXF 393
SF-539 = system: SF-539
SK-MEL-2 = system: SK-MEL-2
SK-MEL-5 = system: SK-MEL-5
SW-620 = system: SW-620
UACC-257 = system: UACC-257
UO-31 = system: UO-31

Measured: GI50

N=C(N)N/N=C/c1ccc(O)c(C(=O)O)c1
inactive: A549 > 100 µM | HCC 2998 > 100 µM | HCT-116 > 100 µM | HOP-92 > 100 µM | HT-29 32.3 µM | K562 > 100 µM | KM12 > 100 µM | MOLT-4 > 100 µM | Malme-3M 99.1 µM | NCI-H460 > 100 µM | OVCAR-3 > 100 µM | OVCAR-5 > 100 µM | OVCAR-8 > 100 µM | RXF 393 > 100 µM | SF-539 > 100 µM | SK-MEL-2 > 100 µM | SK-MEL-5 > 100 µM | SW-620 > 100 µM | UACC-257 > 100 µM | UO-31 > 100 µM

CC(OC(C)(C)C)[C@H](NC(=O)OCC(Cl)(Cl)Cl)C(=O)O (stereo not given in full)
inactive: A549 > 100 µM | HCC 2998 > 100 µM | HCT-116 > 100 µM | HOP-92 > 100 µM | HT-29 > 100 µM | K562 > 100 µM | KM12 > 100 µM | MOLT-4 > 100 µM | Malme-3M > 100 µM | NCI-H460 > 100 µM | OVCAR-3 > 100 µM | OVCAR-5 > 100 µM | OVCAR-8 > 100 µM | RXF 393 87.9 µM | SF-539 > 100 µM | SK-MEL-2 > 100 µM | SK-MEL-5 > 100 µM | SW-620 > 100 µM | UACC-257 > 100 µM | UO-31 > 100 µM

O=C1ON(Cc2ccccc2)C(c2ccccc2)N1c1ccccc1 (stereo not given)
inactive: A549 > 100 µM | HCC 2998 > 100 µM | HCT-116 > 100 µM | HOP-92 > 100 µM | HT-29 > 100 µM | K562 > 95.9 µM | KM12 > 100 µM | MOLT-4 71.6 µM | Malme-3M > 100 µM | NCI-H460 > 100 µM | OVCAR-3 > 100 µM | OVCAR-5 > 100 µM | OVCAR-8 > 100 µM | RXF 393 > 100 µM | SF-539 > 100 µM | SK-MEL-2 > 100 µM | SK-MEL-5 > 100 µM | SW-620 > 100 µM | UACC-257 > 100 µM | UO-31 > 100 µM

O=NN1C(c2ccccc2)CCCC1c1ccccc1 (stereo not given)
inactive: A549 > 71 µM | HCC 2998 80.4 µM | HCT-116 47.9 µM | HOP-92 36.4 µM | HT-29 22.9 µM | K562 35.9 µM | KM12 > 89.9 µM | MOLT-4 27.9 µM | Malme-3M > 65.5 µM | NCI-H460 43.9 µM | OVCAR-3 > 41.8 µM | OVCAR-5 > 100 µM | OVCAR-8 > 43.8 µM | RXF 393 44.5 µM | SF-539 > 100 µM | SK-MEL-2 45.9 µM | SK-MEL-5 49.4 µM | SW-620 > 92.7 µM | UACC-257 72.1 µM | UO-31 42.4 µM

O=[N+]([O-])c1ccc(C2Nn3c(nnc3-c3cccc([N+](=O)[O-])c3)S2)cc1 (stereo not given)
inactive: A549 > 100 µM | HCC 2998 > 100 µM | HCT-116 67.6 µM | HOP-92 > 100 µM | HT-29 > 100 µM | K562 50 µM | KM12 > 100 µM | MOLT-4 37.8 µM | Malme-3M > 100 µM | NCI-H460 > 100 µM | OVCAR-3 > 100 µM | OVCAR-5 > 100 µM | OVCAR-8 92.3 µM | RXF 393 > 100 µM | SF-539 9.08 µM | SK-MEL-2 66.7 µM | SK-MEL-5 53.6 µM | SW-620 71.9 µM | UACC-257 > 100 µM | UO-31 > 100 µM

O=C1C=CC2=[N+]([O-])C(c3ccccc3)(c3ccccc3)/C(=N\c3ccccc3)C2=C1
inactive: A549 15.4 µM | HCC 2998 6.3 µM | HCT-116 1.97 µM | HOP-92 1.7 µM | HT-29 2.41 µM | K562 2.1 µM | MOLT-4 1.27 µM | Malme-3M 2.29 µM | NCI-H460 11 µM | OVCAR-3 1.82 µM | OVCAR-5 16.4 µM | OVCAR-8 1.75 µM | RXF 393 1.6 µM | SF-539 6.85 µM | SK-MEL-2 18.2 µM | SK-MEL-5 14.2 µM | SW-620 1.91 µM | UACC-257 2.38 µM | UO-31 2.21 µM

N#CC1(C#N)C(=O)c2ccncc2C1=O
inactive: A549 > 100 µM | HCC 2998 > 100 µM | HCT-116 > 100 µM | HOP-92 > 100 µM | HT-29 > 100 µM | K562 > 100 µM | KM12 > 100 µM | Malme-3M > 100 µM | NCI-H460 > 100 µM | OVCAR-3 > 100 µM | OVCAR-5 > 100 µM | OVCAR-8 > 100 µM | RXF 393 > 100 µM | SF-539 > 100 µM | SK-MEL-2 > 100 µM | SK-MEL-5 > 100 µM | SW-620 > 100 µM | UACC-257 > 100 µM | UO-31 > 100 µM

C[C@]12CC[C@@H]3c4ccc(O)cc4CC[C@H]3[C@@H]1CC[C@@H]2OP(=O)(O)O
inactive: A549 > 100 µM | HCC 2998 > 100 µM | HCT-116 > 100 µM | HOP-92 > 100 µM | HT-29 > 100 µM | K562 > 100 µM | KM12 > 100 µM | MOLT-4 > 100 µM | Malme-3M > 100 µM | NCI-H460 > 100 µM | OVCAR-3 > 100 µM | OVCAR-5 > 100 µM | OVCAR-8 > 100 µM | RXF 393 > 100 µM | SF-539 > 100 µM | SK-MEL-2 > 100 µM | SK-MEL-5 > 100 µM | SW-620 > 100 µM | UACC-257 > 100 µM | UO-31 > 100 µM

CC1(c2ccccc2)N=c2[nH]cnc2=C(C(N)=O)N1 (stereo not given)
inactive: A549 > 100 µM | HCC 2998 > 100 µM | HCT-116 > 100 µM | HOP-92 > 100 µM | HT-29 > 100 µM | K562 > 100 µM | KM12 > 100 µM | Malme-3M > 100 µM | NCI-H460 > 100 µM | OVCAR-3 > 100 µM | OVCAR-5 > 100 µM | OVCAR-8 > 100 µM | RXF 393 > 100 µM | SF-539 > 100 µM | SK-MEL-2 > 100 µM | SK-MEL-5 > 100 µM | SW-620 > 100 µM | UACC-257 > 100 µM

O=C(O)Cc1cccc2c1Oc1ccccc1S2
inactive: A549 > 100 µM | HCC 2998 > 100 µM | HCT-116 > 100 µM | HOP-92 > 100 µM | HT-29 > 100 µM | K562 > 100 µM | KM12 > 100 µM | MOLT-4 > 100 µM | Malme-3M > 100 µM | NCI-H460 > 100 µM | OVCAR-3 > 100 µM | OVCAR-8 > 100 µM | RXF 393 > 100 µM | SF-539 > 100 µM | SK-MEL-2 > 100 µM | SK-MEL-5 > 100 µM | SW-620 > 100 µM | UACC-257 > 100 µM | UO-31 > 100 µM
